In paper PMC3989846 (Malaria Journal, 2014):

Columns and labels:
[1] = test system: P. berghei ANKA blood stage parasitaemia; assay: Blood stage infection by flow cytometry (FCM) and causal prophylaxis outcome after sporozoite challenge; type: in vivo, Plasmodium berghei; conditions: for Effects: CP = causal prophylaxis; for Blood Infection by FCM: infected/challenged mice
Method: Novel and control anti-malarials were administered orally on days -1, 0, and 1 with respect to sporozoite inoculation. […] Additionally, blood stage infections were measured by flow cytometry. Positive and negative controls were used for the IVIS calibration in each test.
Causal prophylactic effects and delay in onset of parasitaemia in animals treated with TQ and PQ (Figure 1) were assessed in these experiments, which included a positive control, 4-methyl-PQ. All dosing was conducted based on the body weight at the time of preparation of the dosing solution. […] Each animal received 0.1 - 0.2 ml of the oral solutions, delivered via an intragastric feeder (18-gauge) to the designated recipient. Stock solutions of test compounds were prepared fresh daily by grinding the needed amount of drug in cold (4°C) 0.5% (w/v) hydroxyethyl cellulose and 0.2% (v/v) Tween-80 (0.5% HECT) and diluting the resulting solution at variable concentrations. C57BL/6 albino mice were challenged intravenously with 50,000 luciferase-expressing P. berghei sporozoites extracted from the salivary glands of heavily infected An. stephensi mosquitoes. […] At day 5–30 after infection, the same mice were analysed for blood stage infection by determination of the course of parasitaemia of tail blood by flow cytometry using an FC500 flow cytometer (Beckman-Coulter Co. CA).
At day 5–30 after infection, the same mice were analysed for blood stage infections by quantitation of malaria parasites by flow cytometry (FCM). All FCM analyses were carried out with a FC500 MPL flow cytometer (Beckman Coulter, Fullerton, CA), which conducts five-colour analysis from either single or dual laser excitation. Infected erythrocytes, uninfected erythrocytes, and leukocytes were gated on logarithmic forward/side dot plots. Cells were analysed at an average rate of 2,000-3,000 erythrocytes/s. Filters were placed before the green (FL-1) and red (FL-2) photomultiplier tubes (PMTs) such that the green PMT registered fluorescence emission between 520 and 555 nm, and the red PMT measured emission greater than 580 nm.
A drop of blood (3 μL) from the mouse tail was collected directly into 0.3 ml of 1% heparinized isotonic buffer (PBS saline). In this study, 1 ml 0.04% of glutaraldehyde was used for fixation and the samples were then incubated at 4°C for 60 minutes. The cells were centrifuged at 450 × g for 5 min. […] After centrifugation, the permeabilized cells were re-suspended in 0.5 ml of RNAse at 1 mg/ml concentrations and incubated for at least 2 hours at 37°C to ensure complete digestion of reticulocytes. Plasmodium berghei infection in mice results in anaemia which then results in reticulocytosis. Therefore, high RNAse concentrations for digesting large amounts of reticulocytes RNA were required for assessment of parasitaemia in this mouse model.
In the in vivo imaging experiments, causal prophylaxis activity, sporontocidal activity, parasite clearance, causal cure, delays in patency, and time to recrudescence were calculated as described previously. The minimum curative dose (MCD100) in 100% animals was defined as the lowest dose, which cured all animals (>5 animals) in a group at any time during the first 30 days of the follow-up period. […] Means and standard deviations of photon measurement were calculated. Blood stage infection was defined as two positive blood samples by flow cytometry, taken daily apart. The negative blood samples were monitored until day 15 after inoculation. Coefficients of variation were calculated as a percentage by dividing the standard deviation by the mean value.

[2] = parameters: method as in PMID 9598455; conditions: simulated gastric fluid; cited from earlier work
[3] = parameters: method as in PMID 9598455; conditions: cited from earlier work
[4] = 1.25 mg/kg oral, 3 days (-1, 0, 1)
[5] = 5 mg/kg oral, 3 days (-1, 0, 1)
[6] = 5 mg/kg single oral dose on day 0
[7] = 5 mg/kg single oral dose on day -1
[8] = 10 mg/kg oral, 3 days (-1, 0, 1)
[9] = 15 mg/kg oral, 3 days (-1, 0, 1)
[10] = 20 mg/kg oral, 3 days (-1, 0, 1)
[11] = 25 mg/kg oral, 3 days (-1, 0, 1)
[12] = 25 mg/kg single oral dose on day 0
[13] = 25 mg/kg single oral dose on day -1

COc1cc(C)c2c(Oc3cccc(C(F)(F)F)c3)c(OC)cc(NC(C)CCCN)c2n1 (stereo not shown) [Tafenoquine, tafenoquine]
Number of C57BL/albino mice Causal prophylaxis [1, 4]: 1/5
Number of C57BL/albino mice Protected completely [1, 4]: 1
Effects [1, 4]: Suppression
Blood Infection by FCM [1, 4]: 4/5
Number of C57BL/albino mice Causal prophylaxis [1, 5]: 13/13
Number of C57BL/albino mice Protected completely [1, 5]: 13
Effects [1, 5]: Full CP
Blood Infection by FCM [1, 5]: 0/13
Number of C57BL/albino mice Causal prophylaxis [1, 6]: 1/5
Number of C57BL/albino mice Protected completely [1, 6]: 1
Effects [1, 6]: Partial CP
Blood Infection by FCM [1, 6]: 4/5
Number of C57BL/albino mice Causal prophylaxis [1, 7]: 10/10
Number of C57BL/albino mice Protected completely [1, 7]: 10
Effects [1, 7]: Full CP
Blood Infection by FCM [1, 7]: 0/10
Blood Infection by FCM ([1]; 5 mg/kg single oral dose on day -1, listed as TQ): no blood stage parasitaemia
Number of C57BL/albino mice Causal prophylaxis [1, 8]: 5/5
Number of C57BL/albino mice Protected completely [1, 8]: 5
Effects [1, 8]: Full CP
Blood Infection by FCM [1, 8]: 0/5
Number of C57BL/albino mice Causal prophylaxis ([1]; […] oral, 3 days (-1, 0, 1)): 3/5
Number of C57BL/albino mice Protected completely ([1]; […] oral, 3 days (-1, 0, 1)): 3
minimal curative single oral dose ([1]; single oral dose, causal prophylaxis in mice): 5 mg/kg
causal activity ([1]; three oral doses: TQ 5 mg/kg, PQ 25 mg/kg): 100%
time to complete dissolution [2]: ≤ 30 min

COc1cc(NC(C)CCCN)c2ncccc2c1 (stereo not shown) [Primaquine, primaquine]
Effects [1, 5]: Suppression
Blood Infection by FCM [1, 5]: 5/5
Effects [1, 8]: Partial CP
Blood Infection by FCM [1, 8]: 5/10
Effects [1, 9]: Partial CP
Blood Infection by FCM [1, 9]: 4/20
Effects [1, 10]: Partial CP
Blood Infection by FCM [1, 10]: 1/10
Delay in patency (days after onset in controls) ([1]; 20 mg/kg oral, 3 days (-1, 0, 1), per infected mouse): 6 days
Effects [1, 11]: Full CP
Blood Infection by FCM [1, 11]: 0/10
Effects [1, 12]: Suppression
Blood Infection by FCM [1, 12]: 5/5
Effects [1, 13]: Suppression
Blood Infection by FCM [1, 13]: 5/5
blood stage parasitaemia 5–30 days after infection ([1]; single oral dose 25 mg/kg): severe parasitaemia
dose excreted as unchanged drug in the urine [3]: less than 1%
